# Experimental data from patent US11433136B2, “Polyacetal polymers, conjugates, particles and uses thereof” (THE GENERAL HOSPITAL CORPORATION, priority 2015, dated 2022).
# How the values were obtained:
# [1] = test system: orthotopic PAN02 pancreatic tumors; assay: Orthotopic PAN02 pancreatic tumor study in lean and obese mice; format: in vivo, mouse; conditions: for gene and protein expression of activated PSC marker αSMA in tumors: losartan 90 mg/Kg i.p. every day
# From the text: (§1) Wild-type (WT) C57BL/6 and FVB male mice were originally obtained from Jackson Laboratory (The Jackson Laboratory, Bar Harbor, Me.) and bred and maintained in our defined-flora colony. KPC (Ptf1-Cre/LSL-KRAS^G12D/p53-R172H) and iKRAS (p48-Cre;R26-rtTa-IRES-EGFP;TetO-Kras^G12D mice) mice were obtained. To generate an obese model, mice (6-week old) were given either 10% or a 60% fat diet (D12450J and D12492, Research Diets, New Brunswick, N.J.) for 10 weeks (or until tumor collection in spontaneous models), as previously described (Surwit, R. S., et al. Metabolism: clinical and experimental 44, 645-651 (1995)). For implanted tumor experiments, AK4.4 cells (KrasG12D and p53 ? /) were isolated from mice generating spontaneous pancreatic tumors (Ptf1-Cre/LSL-Kras^G12D/p53Lox/ ? ) (Bardeesy, N., et al. Proc Natl Acad Sci USA 103, 5947-5952 (2006)). Orthotopic pancreatic tumors were generated by implanting a small piece (1 mm^3) of viable tumor tissue (from a source tumor in a separate animal) into the pancreas of a 6-8 week-old male lean or obese FVB (AK4.4 model) or C57BL/6 (PAN02 model) mouse. PAN02 tumor chunks and AK4.4 cells were authenticated by IDEXX laboratories. (PAN02: IDEXX RADIL Case #22366-2013. AK4.4: IDEXX RADIL Case #27818-2014). For AT1- and AT2-knockout studies, tumors were implanted into the pancreas of a 6-8-week-old male lean or obese C57BL/6, agtr1a−/− or agtr2−/− mice. With exception of PAN02, these orthotopically grown pancreatic cancers are characterized by a dense collagenous stroma, a hallmark of pancreatic cancer desmoplasia (Diop-Frimpong, B., et al. Proc Natl Acad Sci USA 108, 2909-2914 (2011)).
# (§2) For all experiments unless specified below, mice bearing orthotopic PAN02 or AK4.4 pancreatic tumors were randomized into treatment groups (or no treatment) and tumors were collected at day 21 after implantation. For tumor growth study with chemotherapy, mice were divided into treatment groups 7 days after implantation, and treated with either 5-FU (30 mg/Kg i.v. every 4 days) or an equal volume of saline by intravenous injection on days 7, 11 and 15 after implantation, with tumors collected at day 19. For tumor growth study with losartan, mice were treated with losartan (90 mg/Kg i.p. every day) or an equal volume of PBS intraperitoneally starting on day 5 after implantation and for the duration of the study. In the combined experiment of losartan and 5-FU, the same protocol was used for each drug as described above. TAN depletion by a Ly6G specific inhibitor (BioExcell, 4 mg/Kg i.p. every 2 days) was administered to PAN02 bearing animals starting at day 1 or day 7, and to AK4.4 bearing animals at day 7. IL-1β inhibition (MM425B, Endogen/Pierce Biotechnology, 2 mg/Kg i.p. every 2 days) was administered to PAN02 bearing animals starting at day 7. At the completion of the study, adipose tissue and tumor samples were collected, weighed, and processed for further analysis. When spontaneous models were used, tumors were collected when palpable.
# (§3) To assess obesity-induced ECM remodeling and fibrosis fibrillar collagen accumulation was quantified using second harmonic generation imaging, and collagen-I content, hyaluronan, MMPs levels and fibrosis related signaling pathways (e.g. AT-I, CTGF, TSP 1, TGFβ1, and P38/ERK signaling) were measured by rtPCR array, immunohistochemistry and immunoblotting. The topographical distribution and density of cancer-associated fibroblasts (CAFs) in tumor sections was detected by staining for αSMA activated fibroblast marker. Vessel morphology and perfusion was assessed using standard histological analyses.
# Mice bearing orthotopic PAN02 were injected with 30 mg/kg of 5-FU 3 weeks after tumor implantation, administered retro-orbitally 30 min prior to tumor removal. The tissue was dabbed of excess blood and then snap-frozen in liquid nitrogen for analysis. […]
# [2] = test system: orthotopic AK4.4 pancreatic tumors; assay: Orthotopic AK4.4 pancreatic tumor study in lean and obese mice; format: in vivo, mouse; conditions: for gene and protein expression of activated PSC marker αSMA in tumors: losartan 90 mg/Kg i.p. every day
# From the text: as §1, §2, §3
# Tumor-bearing mice were perfused through intracardiac injection of PBS and sacrificed. Pancreatic tumor tissues were harvested, minced, and digested at 37° C. for 1 h with DMEM containing collagenase type 1A (1.5 mg/mL), hyaluronidase (1.5 mg/mL), and DNase (2 mg/mL). The digestion mixtures were filtered through 70-μm cell strainers. […]
# [3] = lean mice, 3 doses of 5-FU 30 mg/kg BW q4d
# [4] = obese mice, 3 doses of 5-FU 30 mg/kg BW q4d
# [5] = obese mice, effects only modest in lean animals
# [6] = obese, but not lean mice, losartan
"delivery of 5-FU to tumors ([1]; tumors in obese mice versus lean, 30 mg/kg, 30 min prior to tumor removal)",Structure (SMILES),"reduction in tumor weight as compared to untreated controls [1, 3]","effect on tumor weight [1, 4]","reduction in tumor weight as compared to untreated controls [2, 3]","effect on tumor weight [2, 4]",gene and protein expression of activated PSC marker αSMA in tumors ([1]; lean mice),"response to chemotherapy with AT1 blockade ([1]; obese but not lean animals, losartan plus 5-FU)","tumor weight, losartan monotherapy ([1]; obese mice)",gene and protein expression of activated PSC marker αSMA in tumors ([1]; obese mice),"obesity-induced abnormal expression of desmoplasia-related markers and AT1 downstream signaling [1, 5]","gene and protein expression of collagen-I and fibrillar collagen in tumors [1, 6]",gene and protein expression of activated PSC marker αSMA in tumors ([2]; lean mice),"tumor weight, losartan monotherapy ([2]; obese mice)",gene and protein expression of activated PSC marker αSMA in tumors ([2]; obese mice),"obesity-induced abnormal expression of desmoplasia-related markers and AT1 downstream signaling [2, 5]","response to chemotherapy with AT1 blockade ([2]; obese mice, somewhat effective in the lean setting, losartan plus 5-FU)","gene and protein expression of collagen-I and fibrillar collagen in tumors [2, 6]"
decreased,"O=c1[nH]cc(F)c(=O)[nH]1 [Example 5-FU, 5-fluorouracil]",50%,did not significantly reduce tumor weight,50%,did not significantly reduce tumor weight,,,,,,,,,,,,
,CCCCc1nc(Cl)c(CO)n1Cc1ccc(-c2ccccc2-c2nn[nH]n2)cc1 [losartan],,,,,only mildly,enhanced,reduced tumor weight,reduce,normalized,decrease,only mildly,reduced tumor weight,reduce,normalized,improved therapeutic response in tumors to a greater extent,decrease
